Laboratory results as given in PubChem BioAssay AID1259407 (Chemical Carcinogenesis Research Information System (CCRIS), 2018).
Active and inactive are the calls of the source. How the calls were made is not given here.

System: CCRIS mutagenicity, Ames/micronucleus/aberration tests
Test: CCRIS mutagenicity studies
[1] = Test System: AMES SALMONELLA TYPHIMURIUM, Strain/Indicator: TA98, Metabolic Activation: NONE, Method: PREINCUBATION
[2] = Test System: AMES SALMONELLA TYPHIMURIUM, Strain/Indicator: TA98, Metabolic Activation: NONE, Method: STANDARD PLATE
[3] = Test System: AMES SALMONELLA TYPHIMURIUM, Strain/Indicator: TA100, Metabolic Activation: NONE, Method: PREINCUBATION
[4] = Test System: AMES SALMONELLA TYPHIMURIUM, Strain/Indicator: TA100, Metabolic Activation: NONE, Method: STANDARD PLATE
[5] = Test System: AMES SALMONELLA TYPHIMURIUM, Strain/Indicator: TA100, Metabolic Activation: RAT, LIVER, S-9, AROCLOR 1254, Method: PREINCUBATION
[6] = Test System: AMES SALMONELLA TYPHIMURIUM, Strain/Indicator: TA1535, Metabolic Activation: NONE, Method: PREINCUBATION

`Cc1ccccn1` was tested, and the mutagenic call (Test System: AMES SALMONELLA TYPHIMURIUM, Strain/Indicator: TA97, Metabolic Activation: NONE, Method: STANDARD PLATE) was “inactive; negative”, the mutagenic call (Test System: AMES SALMONELLA TYPHIMURIUM, Strain/Indicator: TA97, Metabolic Activation: RAT, LIVER, S-9, AROCLOR 1254, Method: STANDARD PLATE) was “inactive; negative” and the mutagenic call [1] was “inactive; negative”. For the same compound, the mutagenic call [2] was “inactive; negative”, the mutagenic call (Test System: AMES SALMONELLA TYPHIMURIUM, Strain/Indicator: TA98, Metabolic Activation: RAT LIVER S-9, PHENOBARBITAL AND BETA-NAPHTHOFLAVONE, Method: PREINCUBATION) was “inactive; negative” and the mutagenic call (Test System: AMES SALMONELLA TYPHIMURIUM, Strain/Indicator: TA98, Metabolic Activation: RAT, LIVER, S-9, AROCLOR 1254, Method: PREINCUBATION) was “inactive; negative”. The mutagenic call (Test System: AMES SALMONELLA TYPHIMURIUM, Strain/Indicator: TA98, Metabolic Activation: RAT, LIVER, S-9, AROCLOR 1254, Method: STANDARD PLATE) was “inactive; negative”, the mutagenic call [3] was “inactive; negative” and the mutagenic call [4] was “inactive; negative”. For the same compound, the mutagenic call (Test System: AMES SALMONELLA TYPHIMURIUM, Strain/Indicator: TA100, Metabolic Activation: RAT LIVER S-9, PHENOBARBITAL AND BETA-NAPHTHOFLAVONE, Method: PREINCUBATION) was “inactive; negative”, the mutagenic call [5] was “inactive; negative” and the mutagenic call (Test System: AMES SALMONELLA TYPHIMURIUM, Strain/Indicator: TA100, Metabolic Activation: RAT, LIVER, S-9, AROCLOR 1254, Method: STANDARD PLATE) was “inactive; negative”. For the same compound, the mutagenic call (Test System: AMES SALMONELLA TYPHIMURIUM, Strain/Indicator: TA102, Metabolic Activation: NONE, Method: PREINCUBATION) was “inactive; negative”, the mutagenic call (Test System: AMES SALMONELLA TYPHIMURIUM, Strain/Indicator: TA102, Metabolic Activation: NONE, Method: STANDARD PLATE) was “inactive; negative” and the mutagenic call (Test System: AMES SALMONELLA TYPHIMURIUM, Strain/Indicator: TA102, Metabolic Activation: RAT LIVER S-9, PHENOBARBITAL AND BETA-NAPHTHOFLAVONE, Method: PREINCUBATION) was “inactive; negative”. The mutagenic call (Test System: AMES SALMONELLA TYPHIMURIUM, Strain/Indicator: TA102, Metabolic Activation: RAT, LIVER, S-9, AROCLOR 1254, Method: PREINCUBATION) was “inactive; negative”, the mutagenic call (Test System: AMES SALMONELLA TYPHIMURIUM, Strain/Indicator: TA102, Metabolic Activation: RAT, LIVER, S-9, AROCLOR 1254, Method: STANDARD PLATE) was “inactive; negative” and the mutagenic call (Test System: AMES SALMONELLA TYPHIMURIUM, Strain/Indicator: TA104, Metabolic Activation: NONE, Method: PREINCUBATION) was “inactive; negative”. The mutagenic call (Test System: AMES SALMONELLA TYPHIMURIUM, Strain/Indicator: TA104, Metabolic Activation: RAT LIVER S-9, PHENOBARBITAL AND BETA-NAPHTHOFLAVONE, Method: PREINCUBATION) was “inactive; negative”, the mutagenic call [6] was “inactive; negative” and the mutagenic call (Test System: AMES SALMONELLA TYPHIMURIUM, Strain/Indicator: TA1535, Metabolic Activation: RAT LIVER S-9, PHENOBARBITAL AND BETA-NAPHTHOFLAVONE, Method: PREINCUBATION) was “inactive; negative”. For the same compound, the mutagenic call (Test System: AMES SALMONELLA TYPHIMURIUM, Strain/Indicator: TA1537, Metabolic Activation: NONE, Method: PREINCUBATION) was “inactive; negative”, the mutagenic call (Test System: AMES SALMONELLA TYPHIMURIUM, Strain/Indicator: TA1537, Metabolic Activation: RAT LIVER S-9, PHENOBARBITAL AND BETA-NAPHTHOFLAVONE, Method: PREINCUBATION) was “inactive; negative” and the mutagenic call (Test System: E.COLI, Strain/Indicator: WP2UVRA/PKM101, Metabolic Activation: NONE, Method: PREINCUBATION) was “inactive; negative”. The mutagenic call (Test System: E.COLI, Strain/Indicator: WP2UVRA/PKM101, Metabolic Activation: RAT LIVER S-9, PHENOBARBITAL AND BETA-NAPHTHOFLAVONE, Method: PREINCUBATION) was “inactive; negative”, the mutagenic call (Test System: E.COLI, Strain/Indicator: WP2UVRA, Metabolic Activation: NONE, Method: PREINCUBATION) was “inactive; negative” and the mutagenic call (Test System: E.COLI, Strain/Indicator: WP2UVRA, Metabolic Activation: RAT LIVER S-9, PHENOBARBITAL AND BETA-NAPHTHOFLAVONE, Method: PREINCUBATION) was “inactive; negative”.
With `COc1cc(-c2ccc(N/N=C3\C=C(S(=O)(=O)O)c4ccccc4C3=O)c(OC)c2)ccc1N=Nc1cc(S(=O)(=O)O)c2ccccc2c1N` the mutagenic call (Test System: AMES SALMONELLA TYPHIMURIUM, Strain/Indicator: TA97, Metabolic Activation: HAMSTER, LIVER, S-9, AROCLOR 1254 (10 OR 30%), Method: PREINCUBATION) was “inactive; negative”, the mutagenic call (Test System: AMES SALMONELLA TYPHIMURIUM, Strain/Indicator: TA97, Metabolic Activation: NONE, Method: PREINCUBATION) was “inactive; negative” and the mutagenic call (Test System: AMES SALMONELLA TYPHIMURIUM, Strain/Indicator: TA97, Metabolic Activation: RAT, LIVER, S-9, AROCLOR 1254 (10 OR 30%), Method: PREINCUBATION) was “inactive; negative”. For the same compound, the mutagenic call (Test System: AMES SALMONELLA TYPHIMURIUM, Strain/Indicator: TA98, Metabolic Activation: HAMSTER, LIVER, S-9, AROCLOR 1254 (10 OR 30%), Method: PREINCUBATION) was “inactive; negative”, the mutagenic call [1] was “inactive; negative” and the mutagenic call (Test System: AMES SALMONELLA TYPHIMURIUM, Strain/Indicator: TA98, Metabolic Activation: RAT, LIVER, S-9, AROCLOR 1254 (10 OR 30%), Method: PREINCUBATION) was “inactive; negative”. For the same compound, the mutagenic call (Test System: AMES SALMONELLA TYPHIMURIUM, Strain/Indicator: TA100, Metabolic Activation: HAMSTER, LIVER, S-9, AROCLOR 1254 (10 OR 30%), Method: PREINCUBATION) was “inactive; negative”, the mutagenic call [3] was “inactive; negative” and the mutagenic call (Test System: AMES SALMONELLA TYPHIMURIUM, Strain/Indicator: TA100, Metabolic Activation: RAT, LIVER, S-9, AROCLOR 1254 (10 OR 30%), Method: PREINCUBATION) was “inactive; negative”. The mutagenic call (Test System: AMES SALMONELLA TYPHIMURIUM, Strain/Indicator: TA1535, Metabolic Activation: HAMSTER, LIVER, S-9, AROCLOR 1254 (10 OR 30%), Method: PREINCUBATION) was “inactive; negative”, the mutagenic call [6] was “inactive; negative” and the mutagenic call (Test System: AMES SALMONELLA TYPHIMURIUM, Strain/Indicator: TA1535, Metabolic Activation: RAT, LIVER, S-9, AROCLOR 1254 (10 OR 30%), Method: PREINCUBATION) was “inactive; negative”. The mutagenic call (Test System: AMES SALMONELLA TYPHIMURIUM, Strain/Indicator: TA1538, Metabolic Activation: HAMSTER, LIVER, S-9, Method: STANDARD PLATE) was “inactive; negative” and the mutagenic call (Test System: AMES SALMONELLA TYPHIMURIUM, Strain/Indicator: TA1538, Metabolic Activation: RAT, LIVER, S-9, AROCLOR 1254, Method: STANDARD PLATE) was “inactive; negative”.
In the case of `CCCC(=O)OCc1cccc([N+](=O)[O-])c1`, the mutagenic call [1] is reported as “inactive; negative”, the mutagenic call [3] is reported as “inactive; negative” and the mutagenic call [5] is reported as “inactive; negative”.
`ClC/C=C/CCl` was tested, and the mutagenic call (Test System: AMES SALMONELLA TYPHIMURIUM, Strain/Indicator: TA98, Metabolic Activation: HAMSTER, LIVER, S-9, AROCLOR 1254 (10%), Method: STANDARD PLATE) was “active; positive”, the mutagenic call [2] was “active; positive” and the mutagenic call (Test System: AMES SALMONELLA TYPHIMURIUM, Strain/Indicator: TA98, Metabolic Activation: RAT, LIVER, S-9, AROCLOR 1254 (10%), Method: STANDARD PLATE) was “active; positive”. The mutagenic call (Test System: AMES SALMONELLA TYPHIMURIUM, Strain/Indicator: TA100, Metabolic Activation: HAMSTER, LIVER, S-9, AROCLOR 1254 (10%), Method: STANDARD PLATE) was “active; positive”, the mutagenic call [4] was “active; positive” and the mutagenic call (Test System: AMES SALMONELLA TYPHIMURIUM, Strain/Indicator: TA100, Metabolic Activation: RAT, LIVER, S-9, AROCLOR 1254 (10%), Method: STANDARD PLATE) was “active; positive”. For the same compound, the mutagenic call (Test System: MOUSE LYMPHOMA, Strain/Indicator: L5178Y (TK+/TK-), Metabolic Activation: NONE, Method: SUSPENSION/PLATE) was “active; positive. reevaluation of results: inconclusive” and the mutagenic call (Test System: MOUSE LYMPHOMA, Strain/Indicator: L5178Y (TK+/TK-), Metabolic Activation: RAT, LIVER, S-9, AROCLOR 1254, Method: SUSPENSION/PLATE) was “active; positive. reevaluation of results: positive”.
In the case of `Cn1c(N)nc2nc3ccccc3cc21`, the mutagenic call (Test System: AMES SALMONELLA TYPHIMURIUM, Strain/Indicator: TA98, Metabolic Activation: RAT, LIVER, S-9, AROCLOR 1254A, Method: STANDARD PLATE) is reported as “active; positive” and the mutagenic call (Test System: AMES SALMONELLA TYPHIMURIUM, Strain/Indicator: YG1024, Metabolic Activation: RAT, LIVER, S-9, AROCLOR 1254A, Method: STANDARD PLATE) is reported as “active; positive”.
